From patent publication US12157730B2, “Heteroaryl derivative, method for producing same, and pharmaceutical composition comprising same as effective component” (VORONOI INC., priority 2019, dated 2024)

Biological target: T1, Ba/F3 cell EGFR Exon20 ins NPH (Homo sapiens, UniProt P00533, INS773NPH)
T1 construct: expressed in transfected cells; host or cells: Ba/F3
Experiment: Ba/F3 cell proliferation suppression, EGFR Exon20 ins NPH
Format: cell-based
Conditions: GI50 class; Ba/F3 cell line with NPH inserted at Exon20 of EGFR; 72 hours
Procedure, shortened: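 Seed 3000–5000 cells/well; after 24 h add compound (12 conc., 0.3 nM–50 um final); incubate 72 h; add CellTiter-Glo, 10 min room temperature; read luminescence; GI50 from % growth vs control, triplicate.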

| SMILES | Ba/F3 (NPH) Activity |
| --- | --- |
| C=CC(=O)Nc1cc(Nc2cc(N3OCC[C@@H]3Cc3ccccc3)ncn2)c(OC)cc1N1C[C@H]2C[C@@H]1CO2 [compound 957, N-(5-((6-((S)-3-benzylisoxazolidine-2-yl)pyrimidine-4-yl)amino)-2-((1R,4R)-2-oxa-5-azabicyclo [2.2.1]heptane-5-yl)-4-methoxyphenyl) acrylamide] | A (GI50 < 50 nM) |
| C=CC(=O)Nc1cc(Nc2cc(N3OCC[C@@H]3c3cc(F)cc(F)c3)ncn2)c(OC)cc1N1CCC(N2CCN(CC3CC3)CC2)CC1 [Example 92, N-(2-(4-(4-(cyclopropylmethyl)piperazine-1-yl)piperidine-1-yl)-5-((6-((R)-3-(3,5-difluorophenyl)isoxazolidine-2-yl)pyrimidine-4-yl)amino)-4-methoxyphenyl) acrylamide] | A (GI50 < 50 nM) |
| C=CC(=O)Nc1cc(Nc2cc(N3OCC[C@@H]3Cc3ccccc3)ncn2)c(OC)cc1N1CCC(N(C)C)CC1 [compound 951, N-(5-((6-((S)-3-benzylisoxazolidine-2-yl)pyrimidine-4-yl)amino)-2-(4-(dimethylamino)piperidine-1-yl)-4-methoxyphenyl) acrylamide] | A (GI50 < 50 nM) |
| C=CC(=O)Nc1cc(Nc2cc(N3OCC[C@@H]3c3ccc(Cl)c(F)c3)ncn2)c(OC)cc1N1CCC(N2C[C@@H]3C[C@H]2CN3CC)CC1 [compound 858, N-(5-((6-((R)-3-(4-chloro-3-fluorophenyl)isoxazolidine-2-yl)pyrimidine-4-yl)amino)-2-(4-((1S,4S)-5-ethyl-2,5-diazabicyclo [2.2.1]heptane-2-yl)piperidine-1-yl)-4-methoxyphenyl) acrylamide] | A (GI50 < 50 nM) |
| C=CC(=O)Nc1cc(Nc2cc(N3OCC[C@@H]3Cc3cccc(Cl)c3C)ncn2)c(OC)cc1N1CCC(N2C[C@H]3C[C@@H]2CO3)CC1 [compound 1030, N-(2-(4-((1R,4R)-2-oxa-5-azabicyclo [2.2.1]heptane-5-yl)piperidine-1-yl)-5-((6-((S)-3-(3-chloro-2-methylbenzyl)isoxazolidine-2-yl)pyrimidine-4-yl)amino)-4-methoxyphenyl) acrylamide] | A (GI50 < 50 nM) |
| C=CC(=O)Nc1cc(Nc2cc(N3OCC[C@@H]3Cc3cccc(F)c3C)ncn2)c(OC)cc1N1CCC(N2C[C@H]3C[C@@H]2CO3)CC1 [compound 1039, N-(2-(4-((1R,4R)-2-oxa-5-azabicyclo [2.2.1]heptane-5-yl)piperidine-1-yl)-5-((6-((S)-3-(3-fluoro-2-methylbenzyl)isoxazolidine-2-yl)pyrimidine-4-yl)amino)-4-methoxyphenyl) acrylamide] | A (GI50 < 50 nM) |
| C=CC(=O)Nc1cc(Nc2cc(N3OCC[C@@H]3c3cc(F)cc(F)c3)ncn2)c(OC)cc1N1CCC(N2C[C@H]3C[C@@H]2CN3CC)CC1 [Example 267, N-(5-((6-((R)-3-(3,5-difluorophenyl)isoxazolidine-2-yl)pyrimidine-4-yl)amino)-2-(4-((1R,4R)-5-ethyl-2,5-diazabicyclo[2.2.1]heptane-2-yl)piperidine-yl)-4-1-methoxyphenyl) acrylamide] | A (GI50 < 50 nM) |
| C=CC(=O)Nc1cc(Nc2cc(N3OCC[C@@H]3Cc3ccccc3)ncn2)c(OC)cc1N1CCN(C2CCCC2)CC1 [compound 972, N-(5-((6-((S)-3-benzylisoxazolidine-2-yl)pyrimidine-4-yl)amino)-2-(4-cyclopentylpiperazine-1-yl)-4-methoxyphenyl) acrylamide] | A (GI50 < 50 nM) |
| C=CC(=O)Nc1cc(Nc2cc(N3OCC[C@@H]3c3cc(F)cc(F)c3)ncn2)c(OC)cc1N1CCC(N2CCC3(CC2)CC3)CC1 [compound 700, N-(2-(4-(6-azaspiro[2.5]octan-6-yl)piperidine-1-yl)-5-((6-((R)-3-(3,5-difluorophenyl)isoxazolidine-2-yl)pyrimidine-4-yl)amino)-4-methoxyphenyl) acrylamide] | A (GI50 < 50 nM) |
| C=CC(=O)Nc1cc(Nc2cc(N3OCC[C@@H]3c3cccc4ccccc34)ncn2)c(OC)cc1N1CCC(N2CCN(C3CC3)[C@H](C)C2)CC1 [Example 155, N-(2-(4-((R)-4-cyclopropyl-3-methylpiperazine-1-yl)piperidine-1-yl)-4-methoxy-5-((6-((R)-3-(naphthalene-1-yl)isoxazolidine-2-yl)pyrimidine-4-yl)amino)phenyl)acrylamide] | A (GI50 < 50 nM) |
| C=CC(=O)Nc1cc(Nc2cc(N3OCC[C@@H]3Cc3cccc(Cl)c3C)ncn2)c(OC)cc1N1CCN(C2CC2)CC1 [compound 1026, N-(5-((6-((S)-3-(3-chloro-2-methylbenzyl)isoxazolidine-2-yl)pyrimidine-4-yl)amino)-2-(4-cyclopropylpiperazine-1-yl)-4-methoxyphenyl) acrylamide] | B (50 nM ≤ GI50 < 500 nM) |
| C=CC(=O)Nc1cc(Nc2cc(N3OCC[C@@H]3c3cccc(Cl)c3C)ncn2)c(OC)cc1N1CCC(N2CCN(CC)CC2)CC1 [compound 487, N-(5-((6-((R)-3-(3-chloro-2-methylphenyl)isoxazolidine-2-yl)pyrimidine-4-yl)amino)-2-(4-(4-ethylpiperazine-1-yl)piperidine-1-yl)-4-methoxyphenyl) acrylamide] | A (GI50 < 50 nM) |
| C=CC(=O)Nc1cc(Nc2cc(N3OCC[C@@H]3c3cccs3)ncn2)c(OC)cc1N1CCN(C)CC1 [compound 929, N-(4-methoxy-2-(4-methylpiperazine-1-yl)-5-((6-((R)-3-(thiophene-2-yl)isoxazolidine-2-yl)pyrimidine-4-yl)amino)phenyl)acrylamide] | A (GI50 < 50 nM) |
| C=CC(=O)Nc1cc(Nc2cc(N3OCC[C@@H]3c3cccc(Cl)c3C)ncn2)c(OC)cc1N1CCC(N2CCN(C3CC3)CC2)CC1 [Example 145, N-(5-((6-((R)-3-(3-chloro-2-methylphenyl)isoxazolidine-2-yl)pyrimidine-4-yl)amino)-2-(4-(4-cyclopropylpiperazine-1-yl)piperidine-1-yl)-4-methoxyphenyl) acrylamide] | A (GI50 < 50 nM) |
| C=CC(=O)Nc1cc(Nc2cc(N3OCC[C@@H]3c3cc(F)cc(F)c3)ncn2)c(OC)cc1N1CCC(N2C[C@@H]3C[C@H]2CN3C)CC1 [Example 260, N-(5-((6-((R)-3-(3,5-difluorophenyl)isoxazolidine-2-yl)pyrimidine-4-yl)amino)-4-methoxy-2-(4-((1S,4S)-5-methyl-2,5-diazabicyclo[2.2.1]heptane-2-yl)piperidine-1-yl)phenyl)acrylamide] | A (GI50 < 50 nM) |

The next lines start with the values.

| Ba/F3 (NPH) Activity | SMILES |
| --- | --- |
| B (50 nM ≤ GI50 < 500 nM) | C=CC(=O)Nc1cc(Nc2cc(N3OCC[C@@H]3c3ccc(Cl)c(F)c3)ncn2)c(OC)cc1N1CCN(C)CC1 [compound 795, N-(5-((6-((R)-3-(4-chloro-3-fluorophenyl)isoxazolidine-2-yl)pyrimidine-4-yl)amino)-4-methoxy-2-(4-methylpiperazine-1-yl)phenyl)acrylamide] |
| A (GI50 < 50 nM) | C=CC(=O)Nc1cc(Nc2cc(N3OCC[C@@H]3c3ccc(F)c(F)c3F)ncn2)c(OC)cc1N1CCC(N2CCN(C)CC2)CC1 [compound 620, N-(4-methoxy-2-(4-(4-methylpiperazine-1-yl)piperidine-1-yl)-5-((6-((R)-3-(2,3,4-trifluorophenyl)isoxazolidine-2-yl)pyrimidine-4-yl)amino)phenyl)acrylamide] |
| A (GI50 < 50 nM) | C=CC(=O)Nc1cc(Nc2cc(N3OCC[C@@H]3c3ccc(Cl)cc3F)ncn2)c(OC)cc1N1CC[C@@H](N(C)C)C1 [compound 456, N-(5-((6-((R)-3-(4-chloro-2-fluorophenyl)isoxazolidine-2-yl)pyrimidine-4-yl)amino)-2-((R)-3-(dimethylamino)pyrolidine-1-yl)-4-methoxyphenyl) acrylamide] |
| A (GI50 < 50 nM) | C=CC(=O)Nc1cc(Nc2cc(N3OCC[C@@H]3c3cc(F)ccc3F)ncn2)c(OC)cc1N1CCC(N2CC3CC2CN3C)CC1 (stereo partly drawn) [compound 877, N-(5-((6-((R)-3-(2,5-difluorophenyl)isoxazolidine-2-yl)pyrimidine-4-yl)amino)-4-methoxy-2-(4-(5-methyl-2,5-diazabicyclo [2.2.1]heptane-2-yl)piperidine-1-yl)phenyl)acrylamide] |
| A (GI50 < 50 nM) | C=CC(=O)Nc1cc(Nc2cc(N3OCC[C@@H]3c3ccc(F)cc3F)ncn2)c(OC)cc1N1CCC(N2CCN(CCN(C)C)CC2)CC1 [compound 431, N-(5-((6-((R)-3-(2,4-difluorophenyl)isoxazolidine-2-yl)pyrimidine-4-yl)amino)-2-(4-(4-(2-(dimethylamino)ethyl)piperazine-1-yl)piperidine-1-yl)-4-methoxyphenyl) acrylamide] |
| A (GI50 < 50 nM) | C=CC(=O)Nc1cc(Nc2cc(N3OCC[C@@H]3c3cccc(F)c3F)ncn2)c(OC)cc1N1CCC(N2CCN(C)[C@H](C)C2)CC1 [compound 336, N-(5-((6-((R)-3-(2,3-difluorophenyl)isoxazolidine-2-yl)pyrimidine-4-yl)amino)-2-(4-((R)-3,4-dimethylpiperazine-1-yl)piperidine-1-yl)-4-methoxyphenyl) acrylamide] |
| A (GI50 < 50 nM) | C=CC(=O)Nc1cc(Nc2cc(N3OCC[C@@H]3c3ccc(F)c(F)c3F)ncn2)c(OC)cc1N(C)CCN(C)C [compound 571, N-(2-((2-(dimethylamino)ethyl) (methyl)amino)-4-methoxy-5-((6-((R)-3-(2,3,4-trifluorophenyl)isoxazolidine-2-yl)pyrimidine-4-yl)amino)phenyl) acrylamide] |
| C (500 nM ≤ GI50 < 5000 nM) | C=CC(=O)Nc1cc(Nc2cc(N3OCC[C@H]3c3c(F)cccc3F)ncn2)c(OC)cc1N1CCC(N2CC[C@H](N(C)C)C2)CC1 [compound 315, N-(5-((6-((S)-3-(2,6-difluorophenyl)isoxazolidine-2-yl)pyrimidine-4-yl)amino)-2-(4-((S)-3-(dimethylamino)pyrolidine-1-yl)piperidine-1-yl)-4-methoxyphenyl) acrylamide] |
